Earlier results on 124 molecules are cited in the CATMoS acute toxicity set (Mansouri et al. 2021).

Several values for one entry are separate records, joined by “and”; a condition that tells them apart may be missing. Equal values may be shown once.

The nature of the series: rat acute oral toxicity. The settings on record: in vivo.
Take `CCCCOc1ccc(C(CN(C)C)C(C)CC)cc1Cl` (centres undefined): the LD50 is 1050 mg/kg.

Turning to `CCOP(=O)(OCC)SCS(=O)CC` (centres undefined), the LD50 was 1 mg/kg. On to `CCCCn1cnnc1`, for which the LD50 was 50 mg/kg. Take `Nc1ccc(Oc2ccc(C(c3ccc(Oc4ccc(N)cc4)cc3)(C(F)(F)F)C(F)(F)F)cc2)cc1`: the LD50 is 1340 mg/kg. With `CCCCNC(N)=O`, the LD50 was 1260 mg/kg. For the molecule `Cc1c(-c2ccccc2)oc2c(C(=O)OC(C)(C)CN3CCCCC3)cccc2c1=O`, the LD50 was 1980 mg/kg. For the molecule `C=CCC1=C(C)C(OC(=O)C2C(C)(C)C2(C)C)CC1=O` (centres undefined), the LD50 is 174 mg/kg. `O=C1CCc2cc(C(=O)CCCN3CC=C(c4ccccc4)CC3)ccc2N1`: the LD50 is 500 mg/kg. In the case of `CNC(=O)Oc1cccc(C(C)C)c1Cl`, the LD50 is 35 mg/kg. Take `CCCc1ccc(O)c(OC)c1`: the LD50 was 2600 mg/kg. Consider `NC(=O)OCCCc1ccccc1`, for which the LD50 was 1110 mg/kg. On to `CCCC(=O)C1c2cccc(O)c2C(=O)c2c(O)cccc21`, for which the LD50 is 1580 mg/kg. For the molecule `c1ccc(C2(c3ccccc3)OCC(C3CCCCN3)O2)cc1` (centres undefined), the LD50 is 310 mg/kg and 280 mg/kg.

Turning to `O=C(OCC(COC(=O)c1ccccc1)(COC(=O)c1ccccc1)COC(=O)c1ccccc1)c1ccccc1`, the LD50 was 1160 mg/kg. For `NC(CO)C(=O)NNCc1ccc(O)c(O)c1O` (centres undefined), the LD50 was 5300 mg/kg. In the case of `CCOC1Oc2ccc(OS(C)(=O)=O)cc2C1(C)C` (centres undefined), the LD50 is 1130 mg/kg. Consider `O=C1CN=C(c2ccccc2)c2cc([N+](=O)[O-])ccc2N1`, for which the LD50 was 825 mg/kg.

Take `COP(=S)(OC)Oc1ccc([N+](=O)[O-])c(C(F)(F)F)c1`: the LD50 was 250 mg/kg. With `Cc1cccc(/N=N\N(C)C)c1`, the LD50 is 300 mg/kg. Consider `CC(COc1ccccc1)N(CCCl)Cc1ccccc1` (centres undefined), for which the LD50 was 2500 mg/kg. On to `O=C(O)COc1ccc(Cl)cc1Cl`, for which the LD50 was 405 mg/kg and 850 mg/kg. For `CN(C)c1ccc(SC#N)cc1`, the LD50 was 500 mg/kg.

As for `CC(C)=CCC/C(C)=C/C#N`, the LD50 is 3100 mg/kg. Regarding `OCCCCC(O)CO` (centres undefined), the LD50 is 15500 mg/kg. As to `CC(C)CCCC1CCC(C)(C(=O)NCC(=O)O)CC1` (centres undefined), the LD50 was 10300 mg/kg. On to `CCN[C@H](C)Cc1cccc(C(F)(F)F)c1`, for which the LD50 is 195 mg/kg. On to `O=C1OCCN1/N=C/c1ccc([N+](=O)[O-])o1`, for which the LD50 was 2340 mg/kg. For `CCC(C)c1ccc(O)cc1` (centres undefined), the LD50 was 2450 mg/kg.

As to `CC(C)(CCl)c1cc(Cl)nnc1Cl`, the LD50 is 1000 mg/kg. As for `CCNC(=O)OCCSCSP(=S)(OC)OC(C)C` (centres undefined), the LD50 was 8.5 mg/kg. As to `C=C(C)C(=O)OCCN(CC)CC`, the LD50 is 4700 mg/kg. As to `CON=C(C(=O)N[C@@H]1C(=O)N2C(C(=O)O)=C(COC(N)=O)CS[C@H]12)c1ccco1`, the LD50 is 10000 mg/kg. Take `CNC(=O)ON=C(SC)c1ccc(Cl)cc1`: the 50% lethal dose (LD50) is 670 mg/kg. As for `CCCCN1C(=O)c2cccc([N+](=O)[O-])c2C1=O`, the LD50 was 2030 mg/kg. Consider `COC(=O)C=Cc1ccccc1`, for which the LD50 was 2610 mg/kg.

`c1cc(N(CC2CO2)CC2CO2)ccc1OCC1CO1` (centres undefined): the LD50 was 1040 mg/kg. `CC(C)=NNC(=O)CSc1cc(Oc2ccc(C)cc2)ncn1`: the LD50 was 900 mg/kg. For `O=C(Cl)OCc1ccccc1`, the LD50 was 3000 mg/kg. Regarding `COc1c(Cl)ccc2[nH]c(C(F)(F)F)nc12`, the LD50 was 3.15 mg/kg. As for `O=S(=O)(Nc1ncc(OCCO)cn1)c1ccccc1`, the LD50 was 8000 mg/kg. As to `CCC(CO)(CO)CO`, the LD50 was 14100 mg/kg. Turning to `O=Cc1ccc(O)cc1`, the LD50 was 2250 mg/kg. As to `NCCCOCCOCCO`, the LD50 is 6500 mg/kg. As to `Cc1c(Cl)c(Br)cc2[nH]c(C(F)(F)F)nc12`, the LD50 is 30 mg/kg.

Turning to `CCC(C)OC(C[n+]1ccccc1)c1ccc(Cl)cc1` (centres undefined), the LD50 was 250 mg/kg. On to `CC(C)COC(=O)CCc1ccco1`, for which the LD50 was 1950 mg/kg. Take `Cc1oncc1C(=O)Nc1ccc(C(F)(F)F)cc1`: the LD50 was 235 mg/kg.

As for `C=C(C)Cn1c(N)cc(=O)n(C)c1=O`, the LD50 is 1560 mg/kg.

With `O=C(O)C(c1ccccc1)c1ccccc1`, the LD50 was 5540 mg/kg. On to `CCN(CC)CCNC(=O)c1cc(S(C)(=O)=O)ccc1OC`, for which the median lethal dose (LD50) was 4840 mg/kg. With `CCOc1ccccc1N1CCN(CC=Cc2ccc3c(c2)CCC(=O)N3)CC1`, the LD50 was 500 mg/kg.

For the molecule `CCc1occc(=O)c1O`, the LD50 is 1150 mg/kg.

As to `CC1OC1C1CCC2(C)OC2C1` (centres undefined), the LD50 was 5630 mg/kg. For `O=C(O)C=CC(=O)O`, the LD50 was 8000 mg/kg and 3380 mg/kg. On to `CC(NCCO)c1ccccc1` (centres undefined), for which the LD50 is 2830 mg/kg. Regarding `O[C@@H]1CO[C@H]2[C@@H]1OC[C@@H]2O`, the LD50 is 24200 mg/kg.

As to `C[C@]12CCC(=O)C=C1C=C[C@@H]1[C@@H]2CC[C@@]2(C)[C@H]1CC[C@@]2(O)CCC(=O)O`, the LD50 was 650 mg/kg.

On to `CNC(=O)Oc1ccc(SC)c(C)c1`, for which the LD50 was 50 mg/kg. Consider `O=S(=O)(O)c1ccc2c(Cc3cccc4cc(S(=O)(=O)O)ccc34)cccc2c1`, for which the LD50 is 3800 mg/kg.

For `CCCN=C(NCCC)C(OCC)c1ccccc1` (centres undefined), the LD50 is 95 mg/kg.

`CCC(C)C(C)(COC(N)=O)COC(N)=O` (centres undefined): the LD50 is 1160 mg/kg. `ClC1=C(Cl)C2(Cl)C3CC(Cl)(Cl)CC3C1(Cl)C2(Cl)Cl` (centres undefined): the LD50 is 500 mg/kg. On to `CCNc1nc(NCC)nc(SC)n1`, for which the LD50 was 750 mg/kg. For `CC(=O)C(Cl)C(=O)OC(C)c1ccccc1` (centres undefined), the LD50 is 880 mg/kg. In the case of `Cc1ccccc1OCC(COC(O)C(Cl)(Cl)Cl)OC(O)C(Cl)(Cl)Cl` (centres undefined), the LD50 is 880 mg/kg.

Regarding `CCC(O)CO` (centres undefined), the LD50 was 16000 mg/kg.

For the molecule `CCCCNC(=O)OCC(O)C1COc2ccccc2O1` (centres undefined), the LD50 was 1500 mg/kg.

Regarding `Cc1c(C(=O)NCCO)[n+]([O-])c2ccccc2[n+]1[O-]`, the 50% lethal dose (LD50) is 1720 mg/kg.

Consider `CC(C)(C)c1cc([N+](=O)[O-])cc(C(C)(C)C)c1O`, for which the LD50 was 250 mg/kg.

Regarding `COCCCOCC(C)OCCCOC(=O)c1ccccc1` (centres undefined), the LD50 is 5480 mg/kg. For the molecule `CC(=O)CO`, the LD50 was 2200 mg/kg. With `O=C(NNC1OC(C(=O)O)C(O)C(O)C1O)c1ccncc1` (centres undefined), the LD50 is 20300 mg/kg.

Consider `Cc1ccccc1C(C)c1ccccc1` (centres undefined), for which the LD50 was 1750 mg/kg. In the case of `CCNCC`, the LD50 is 9900 mg/kg.

With `COc1ccc(OCC(=O)N[C@@H]2C(=O)N3[C@@H]2SC(C)(C)[C@@H]3C(=O)O)cc1F`, the LD50 was 7000 mg/kg. Take `O=S(=O)(O)C(F)(F)C(F)(F)C(F)(F)C(F)(F)F`: the LD50 is 430 mg/kg. For the molecule `Fc1c(Cl)c(Cl)c2nc(C(F)(F)F)[nH]c2c1Cl`, the LD50 is 2.39 mg/kg.

Consider `COC(=O)c1cccc(CCN(C)Cc2ccccc2)c1`, for which the LD50 was 700 mg/kg. As for `CC(O)C1CCCCC1` (centres undefined), the LD50 was 2100 mg/kg. As for `CCCCOC(C1=NCCCN1)c1ccccc1` (centres undefined), the LD50 was 310 mg/kg. Take `C=CC(C)=O`: the LD50 was 23.1 mg/kg.

Turning to `O=C(O)c1cc(O)cc(C(=O)O)c1`, the LD50 was 11200 mg/kg. For the molecule `COc1cc(N)c(C)cc1N(C)C`, the 50% lethal dose (LD50) is 29.7 mg/kg. Regarding `CCCCOP(=O)(OCCCC)Oc1ccc2c(C)c(Cl)c(=O)oc2c1`, the LD50 was 63 mg/kg.

With `CCOP(=O)(OCC)O/C(=C\Cl)c1cc(Cl)ccc1Cl`, the LD50 was 35 mg/kg. Regarding `C1CCCCC1`, the LD50 is 12700 mg/kg. `CCCCCCOC(=O)c1ccccc1`: the LD50 was 12300 mg/kg. As to `CNC(=O)CSP(O)(=S)OC` (centres undefined), the LD50 is 1500 mg/kg. `CCC(=O)c1ccc2c(c1)N(CCCN(C)C)c1ccccc1S2`: the LD50 was 500 mg/kg. Regarding `COC1=C(OC)C(=O)C(CCCCCCCCCCO)=C(C)C1=O`, the LD50 is 10000 mg/kg.

`C#CCCC#CC#CCCCCO`: the LD50 is 250 mg/kg. As for `Cl[Si](Cl)(Cl)c1ccccc1`, the LD50 was 2390 mg/kg. With `CC(C)NCCCC1(C(N)=O)c2ccccc2-c2ccccc21`, the 50% lethal dose (LD50) was 82 mg/kg.

In the case of `CC(C)C(CCN(C)C)(C(N)=O)c1cccc2ccccc12` (centres undefined), the LD50 is 1030 mg/kg. Regarding `N#C[SeH]`, the LD50 was 10 mg/kg. Take `CN(C)N=Nc1ccc(C(=O)O)cc1`: the LD50 was 320 mg/kg. On to `CCN(N=O)C(C)(C)C`, for which the LD50 is 1600 mg/kg.

In the case of `C=CC(=O)OCCOCCOCCOCCOC(=O)C=C`, the LD50 is 813 mg/kg.

Turning to `CNC(=O)Oc1ccc(N=CN(C)C)c(C)c1`, the LD50 was 7.2 mg/kg. As to `Cc1ccc(Cl)c(OCC(O)CNC(C)(C)C)c1` (centres undefined), the LD50 is 518 mg/kg. For `c1ccc(C2(c3ccccc3)COC(c3ccccc3)(C3CCCCN3)OC2)cc1` (centres undefined), the LD50 is 300 mg/kg. For the molecule `COc1cc2c(cc1OC)C(c1ccc(N)cc1)=NN=C(C)C2`, the LD50 was 128 mg/kg. For the molecule `CC(C)COC(=O)CCCOc1ccc(Cl)cc1Cl`, the LD50 is 300 mg/kg. For `ClCCC[Si](Cl)(Cl)Cl`, the LD50 is 200 mg/kg. Turning to `CC(=O)O`, the LD50 was 3250 mg/kg. As to `OCCNCCc1ccccc1`, the LD50 was 1870 mg/kg. As for `CNC(=O)ON=C1SCCOC1(C)C`, the 50% lethal dose (LD50) is 0.6 mg/kg.

For `O=NN1CCSC1`, the LD50 was 1950 mg/kg. Consider `Cn1c(=O)c2c(ncn2CCCCN2CCN(c3ccc(Cl)cc3)CC2)n(C)c1=O`, for which the LD50 was 505 mg/kg.

In the case of `NC(=O)C1CCN(CCCN2c3ccccc3Sc3ccc(Cl)cc32)CC1`, the LD50 is 620 mg/kg. For `Cc1ccc(S(=O)(=O)NC(=O)NC2C3CCC(C)(C2O)C3(C)C)cc1` (centres undefined), the LD50 is 18000 mg/kg.

In the case of `CC1(C)CN(c2ccccc2)NC1=O`, the LD50 was 30 mg/kg. In the case of `CN(c1ccc(Cl)cc1Br)c1c([N+](=O)[O-])cc([N+](=O)[O-])cc1C(F)(F)F`, the LD50 was 4.5 mg/kg. With `O=[N+]([O-])c1ccc(O)cc1`, the LD50 was 320 mg/kg.

In the case of `C#CCc1ccc(COC(=O)C2C(C=C(C)C)C2(C)C)o1` (centres undefined), the LD50 is 10000 mg/kg. `CCOC(=O)COc1ccc2c(C)c(CCN(CC)CC)c(=O)oc2c1Cl`: the LD50 was 1250 mg/kg. Take `CC(C)N1C=CC(=C2C(=O)c3ccccc3C2=O)C=C1`: the LD50 was 1450 mg/kg. For `COCCOC`, the median lethal dose (LD50) was 5370 mg/kg. With `O=c1nc[nH]c2c1ncn2[C@@H]1O[C@H](COP(=O)(O)OP(=O)(O)O)[C@@H](O)[C@H]1O`, the LD50 is 3790 mg/kg. In the case of `CCCCCCCCCCCCCCCCCCN(C)C`, the LD50 was 200 mg/kg. As for `O=S1OC[C@@H]2[C@H](CO1)[C@]1(Cl)C(Cl)=C(Cl)[C@@]2(Cl)C1(Cl)Cl` (some centres undefined), the LD50 is 76 mg/kg. For `O=P(OC=C(Cl)Cl)(OCCCl)OCCCl`, the LD50 was 25 mg/kg. In the case of `CCC(C)c1cc(OC(=O)NC)ccc1C` (centres undefined), the LD50 is 35 mg/kg. Take `COP(=O)(OC)SC(CC(=O)OC(C)C)C(=O)OC(C)C` (centres undefined): the LD50 is 120 mg/kg.
